Test results as given in patent US9198420B2, “Rodenticidal norbormide analogues” (priority 2012, dated 2015).
Marks after values point to notes of the source that are not given here.

Assays:
Sprague Dawley rats [1] = experiment: In vivo lethality, oral gavage; set-up: species or system rat (Sprague Dawley); details: rat; for Time to Death (min) / Onset of Symptoms: mean time; for Onset of Symptoms: visual signs of distress consistent with NRB-like symptoms; for In vivo lethality (oral): n = 2
In short: (§1)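 Sprague Dawley rats (150-200 g) received compound dissolved in 0.2 M HCl (5% DMSO overall) at the desired dose, by oral gavage or tail-vein i.v. injection. Animals were watched for early toxicity signs every minute (i.v.) or every 15 min (oral).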

Sprague Dawley rats [2] = experiment: Palatability (no-choice) trial, peanut butter bait; type: in vivo, rat (Sprague Dawley); details: 1% w/w toxicant in peanut butter bait, n = 6, 3 male and 3 female rats
From the text: In the palatability trials, Sprague Dawley rats (ca. 250 g) were presented with 1% w/w compound (n=6) or 0.5% w/w compound (n=5) in a peanut butter bait, following 3 days ‘pre-baiting’ with a peanut butter formulation free of toxicant.

[3] = Rat serum assay (release of NRB or NRB analogue); type: in vitro ADME; details: 80% rat serum, 37° C., 3 h, n = 3
In short: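 Compound (200 μM final) incubated in 80% rat serum diluted with 0.1 M phosphate pH 7.4, 2.5% DMSO, 37 °C for 3 h, n=3, then quenched in ice-cold acetonitrile. NRB or analogue release was quantified by RP-LCMS against external calibration curves, expressed as percent released.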

[4] = Simulated gastric fluid (SGF) hydrolytic stability assay; type: physicochemical; details: footnote c: compounds not exhibiting vasoconstriction; simulated gastric fluid without pepsin, pH 1.2, 37° C., 1 h, n = 3
In short: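 Compounds at 200 μM final (2.5% DMSO) were held 1 h at 37 °C in pepsin-free USP simulated gastric fluid (0.03 M NaCl, pH 1.2 with HCl), n=3. […] was quantified by RP-LCMS.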

rat caudal artery = experiment: Rat caudal artery ring contractile force (vasoconstrictory activity); set-up: species or system rat (male Wistar)
In short: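 Endothelium-denuded caudal artery rings from male Wistar rats were held at 2 g resting tension in Tyrode solution (37° C, pH 7.35, 95% O2/CO2) and isometric force was recorded. Compounds were tested at 50 μM, with contraction expressed as percent of the 90 mM KCl response.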

[5] = Rat liver S9 fraction assay (release of NRB or NRB analogue); type: in vitro ADME, rat (male Sprague-Dawley); details: 1 mg/mL rat liver S9 fraction, 37° C., 6 h, n = 3
Procedure: The hydrolytic stability of compounds of the invention was also evaluated in vitro using rat liver S9 fraction (20 mg/mL), pooled from male rat (Sprague-Dawley), obtained from Sigma-Aldrich, diluted to 1 mg/mL with phosphate buffer (0.1 M, pH 7.4) and stored at −78° C. Similar assay conditions to those reported by Li Di and co-workers (Int. J. Pharm. 2005, 297, 110-119) were followed [200 μL total volume, 1 mg/mL rat liver S9 fraction (diluting with phosphate buffer (0.1 M, pH 7.4)), at a final compound concentration of 200 μM, 2.5% DMSO overall, 37° C., 6 h, n=3]. The assay protocol followed is as that described above for the rat serum assay, with an adjusted end-point of 6 h.

Sprague Dawley rats [6] = experiment: In vivo lethality, intravenous injection via the tail; set-up: species or system rat (Sprague Dawley); details: 20 mg/Kg, rat, n = 2
In short: as §1

Sprague Dawley rats [7] = experiment: Palatability (choice) trial, peanut butter bait; type: in vivo, rat (Sprague Dawley); details: choice of EPA diet (20 g) and bait with 1% w/w toxicant (20 g), 2 days, n = 2; Table 15
Sprague Dawley rats [8] = experiment: Palatability (no-choice) trial, peanut butter bait; type: in vivo, rat (Sprague Dawley); details: 2% w/w toxicant in peanut butter bait, n = 6, Table 12

| Compound | Time to Death (min) (Sprague Dawley rats [1]; 20 mg/Kg) | Onset of Symptoms (Sprague Dawley rats [1]; 20 mg/Kg) [min] | No of deaths (Sprague Dawley rats [2]; Table 11) | % NRB released, Rat Serum [3] [%] | % NRB released, Hydrolytic Stability (simulated gastric fluid) [4] | Vasoconstriction: maximum contractile effect as a % of 90 mM KCl contraction (rat caudal artery; Table 1, compound at 50 μM) [%] | Vasoconstriction: maximum contractile effect as a % of 90 mM KCl contraction (rat caudal artery; Table 4, pre-cleavage, n = 3) [%] | % NRB released, Rat Liver S9 [5] [%] | In vivo lethality (oral) (Sprague Dawley rats [1]; 40 mg/Kg) | In vivo lethality (i.v.) (Sprague Dawley rats [6]) | In vivo lethality (oral) (Sprague Dawley rats [1]; 20 mg/Kg) | No of deaths (Sprague Dawley rats [2]; Table 12) | No of deaths (Sprague Dawley rats [7]) | No of deaths (Sprague Dawley rats [8]) | Vasoconstriction: maximum contractile effect as a % of 90 mM KCl contraction (rat caudal artery; Table 2, compound at 50 μM) [%] |
| --- | --- | --- | --- | --- | --- | --- | --- | --- | --- | --- | --- | --- | --- | --- | --- |
| CCCCCCCC(=O)OCCN1C(=O)C2C3C=C(C(O)(c4ccccc4)c4ccccn4)C(C3=C(c3ccccc3)c3ccccn3)C2C1=O (stereo not drawn) [Compound 111, 5-(α-Hydroxy-α-2-pyridylbenzyl)-N-2′-octanoyloxyethyl-7-(α-2-pyridylbenzylidene)-5-norbornene-2,3-dicarboximide] | >120^e min | 15 | 6/6 | 87.9 ± 0.7 | 20^c % | 0 | 0 | 48.5 ± 8.5 | – | – | – | – | – | – | – |
| O=C(OCCN1C(=O)C2C3C=C(C(O)(c4ccccc4)c4ccccn4)C(C3=C(c3ccccc3)c3ccccn3)C2C1=O)C(c1ccccc1)c1ccccc1 (stereo not shown) [Compound 118] | – | – | – | <5 | 0^c % | 0 | 0 | 9.0 ± 0.7 | no^h | yes^f | – | – | – | – | – |
| O=C(OCCN1C(=O)C2C3C=C(C(O)(c4ccccc4)c4ccccn4)C(C3=C(c3ccccc3)c3ccccn3)C2C1=O)c1ccc2ccccc2c1 (stereo not drawn) [Compound 122, 5-(α-Hydroxy-α-2-pyridylbenzyl)-N-[2′-(2″-naphthoyloxy)ethyl]-7-(α-2-pyridylbenzylidene)-5-norbornene-2,3-dicarboximide] | – | – | – | 14.4 ± 3.0 | 0^c % | 0 | 0 | 14.1 ± 0.5 | yes^h,i | yes^f | yes^h,i | – | – | – | – |
| O=C(C=Cc1ccccc1)OCCCN1C(=O)C2C3C=C(C(O)(c4ccccc4)c4ccccn4)C(C3=C(c3ccccc3)c3ccccn3)C2C1=O (stereo not drawn) [Compound 136, N-3′-Cinnamoyloxypropyl-5-(α-hydroxy-α-2-pyridylbenzyl)-7-(α-2-pyridylbenzylidene)-5-norbornene-2,3-dicarboximide] | not lethal | 20 | – | 76.5 ± 5.7 | 0^c % | 0 | 0 | 18.2 ± 2.7 | yes^h | yes^f | – | – | – | – | – |
| CCCCCCCCCCCC(=O)NCCN1C(=O)C2C3C=C(C(O)(c4ccccc4)c4ccccn4)C(C3=C(c3ccccc3)c3ccccn3)C2C1=O (stereo not drawn) [Compound 339, N-2′-Dodecanamidoethyl-5-(α-hydroxy-α-2-pyridylbenzyl)-7-(α-2-pyridylbenzylidene)-5-norbornene-2,3-dicarboximide] | 300^e min | 200 | – | – | – | – | 0 | – | yes^h | – | – | 3/6 | 3/12 | 5/6 | 0 |
